In patent publication US4552882A, “7-(1-Pyrrolyl) derivatives of 1-ethyl-1,4-dihydro-4-oxoquinoline-3-carboxylic acids and 1-ethyl-1,4-dihydro-4-oxo-1,8-naphthyridine-3-carboxylic acids and their use as antimicrobial agents” (Provesan, SA, priority 1983, dated 1985):
Values after ≈ are worked out from the molar mass of the structure shown.

Legend:
Assay in all cases: MIC in vitro
Type in all cases: cell-based
[1] = test system: Serratia marcescens ATCC 13880; conditions: ATCC13880, Dextrose agar, 37° C., 20 hours
Description: (§1) (G. L. Daquet and Y. A. Chabbect, Techniques en bacteriologie (Bacteriological techniques), vol. 3, Flammarion Medecine Sciences, Paris, 1972 and W. B. Hugo and A. D. Rusell, Pharmaceutical Microbiology, Blackwell Scientific Publications, London, (1977)). Antibiotic medium no. 1 (seed agar) (Oxoid CM 327) Tryptone-soya broth (Oxoid CM 129) Ringer's physiological solution 1/4 (oxoid BR 52) Dextrose agar (BBL-11165) 0.1 N NaOH "Serratia marcescens" ATCC 13880 Each of the microorganisms is seeded by streaking in tubes of Antibiotic medium No. 1 (seed agar), which are then incubated at 37° C. for 20 hours. Using a culture loop, the cultures are then seeded in tryptone-soyabroth and incubated at 37° C. for 20 hours. The culture obtained is diluted to 1/4 with Ringer's physiological solution, so as to obtain a standardized suspension of 10^7 -10^9 cfu/ml for each organism. Starting from a solution of 1,000 μg/ml in 0.1 N NaOH, each product is diluted in Dextrose agar (previously melted and maintained at 50° C.), with successive dilutions so as to obtain the following concentrations: 64--32--16--8--4--2--1--0.5--0.25--0.125 μg of derivative/ml medium. For each product, the solution of each concentration is subsequently distributed into Petri dishes 10 cm in diameter, with 10 ml of medium per dish and the same number of dishes as microorganisms to be tested. As soon as the medium has cooled, the dishes are seeded with the inoculations using 0.4 ml of inoculation per dish. They are spread with a Driglasky loop and the supernatant is removed. The seeded dishes are incubated at 37° C. for 20 hours.

[2] = test system: Escherichia coli ATCC 10536; conditions: ATCC10536, Dextrose agar, 37° C., 20 hours
Description: as §1, with “"Escherichia coli"” for “"Serratia marcescens"”, “10536” for “13880”

[3] = test system: Pseudomonas aeruginosa ATCC 25115; conditions: ATCC25115, Dextrose agar, 37° C., 20 hours
Source text: as §1, with “"Pseudomonas aeruginosa"” for “"Serratia marcescens"”, “25115” for “13880”

Row | Compound | MIC [1] | MIC [2] | MIC [3]
1 | CCn1cc(C(=O)O)c(=O)c2ccc(-n3cccc3)cc21 [Example 1, 7-(1-pyrrolyl)-1-ethyl-1,4-dihydro-4-oxo-3-quinolinecarboxylic acid] | 8 µg/mL (≈ 28.3 µM) | 4 µg/mL (≈ 14.2 µM) | > 64 µg/mL
2 | CCn1cc(C(=O)O)c(=O)c2cc(F)c(-n3cccc3)cc21 [Example 2, 6-fluoro-7-(1-pyrrolyl)-1-ethyl-1,4-dihydro-4-oxo-3-quinolinecarboxylic acid] | 2 µg/mL (≈ 6.66 µM) | 1 µg/mL (≈ 3.33 µM) | 16 µg/mL (≈ 53.3 µM)
3 | CCn1cc(C(=O)O)c(=O)c2ccc(-n3cccc3)nc21 [Example 3, 1-ethyl-1,4-dihydro-4-oxo-7-(1-pyrrolyl)-1,8-naphthyridine-3-carboxylic acid] | 16 µg/mL (≈ 56.5 µM) | 8 µg/mL (≈ 28.2 µM) | > 64 µg/mL
4 | CCn1cc(C(=O)O)c(=O)c2cc(F)c(-n3cccc3)nc21 [Example 4, 1-ethyl-1,4-dihydro-4-oxo-6-fluoro-7-(1-pyrrolyl)-1,8-naphthyridine-3-carboxylic acid] | 2 µg/mL (≈ 6.64 µM) | 0.12 µg/mL (≈ 0.398 µM) | 32 µg/mL (≈ 106 µM)
5 | CCn1cc(C(=O)O)c(=O)c2cnc(N3CCNCC3)nc21 [Pipemidic acid, reference compound] | 16 µg/mL (≈ 52.7 µM) | 2 µg/mL (≈ 6.59 µM) | 32 µg/mL (≈ 105 µM)
